Experimental findings from ChEMBL document CHEMBL4680359, “1-Pyrazolyl-5,6-Disubstituted Indazole Derivatives as LRRK2 Inhibitors for Treating Parkinson's Disease” (ACS Med Chem Lett, 2021) are described below.

Sequence of Leucine-rich repeat serine/threonine-protein kinase 2 (Q5S007 whole entry G2019S, the tested form may be a part): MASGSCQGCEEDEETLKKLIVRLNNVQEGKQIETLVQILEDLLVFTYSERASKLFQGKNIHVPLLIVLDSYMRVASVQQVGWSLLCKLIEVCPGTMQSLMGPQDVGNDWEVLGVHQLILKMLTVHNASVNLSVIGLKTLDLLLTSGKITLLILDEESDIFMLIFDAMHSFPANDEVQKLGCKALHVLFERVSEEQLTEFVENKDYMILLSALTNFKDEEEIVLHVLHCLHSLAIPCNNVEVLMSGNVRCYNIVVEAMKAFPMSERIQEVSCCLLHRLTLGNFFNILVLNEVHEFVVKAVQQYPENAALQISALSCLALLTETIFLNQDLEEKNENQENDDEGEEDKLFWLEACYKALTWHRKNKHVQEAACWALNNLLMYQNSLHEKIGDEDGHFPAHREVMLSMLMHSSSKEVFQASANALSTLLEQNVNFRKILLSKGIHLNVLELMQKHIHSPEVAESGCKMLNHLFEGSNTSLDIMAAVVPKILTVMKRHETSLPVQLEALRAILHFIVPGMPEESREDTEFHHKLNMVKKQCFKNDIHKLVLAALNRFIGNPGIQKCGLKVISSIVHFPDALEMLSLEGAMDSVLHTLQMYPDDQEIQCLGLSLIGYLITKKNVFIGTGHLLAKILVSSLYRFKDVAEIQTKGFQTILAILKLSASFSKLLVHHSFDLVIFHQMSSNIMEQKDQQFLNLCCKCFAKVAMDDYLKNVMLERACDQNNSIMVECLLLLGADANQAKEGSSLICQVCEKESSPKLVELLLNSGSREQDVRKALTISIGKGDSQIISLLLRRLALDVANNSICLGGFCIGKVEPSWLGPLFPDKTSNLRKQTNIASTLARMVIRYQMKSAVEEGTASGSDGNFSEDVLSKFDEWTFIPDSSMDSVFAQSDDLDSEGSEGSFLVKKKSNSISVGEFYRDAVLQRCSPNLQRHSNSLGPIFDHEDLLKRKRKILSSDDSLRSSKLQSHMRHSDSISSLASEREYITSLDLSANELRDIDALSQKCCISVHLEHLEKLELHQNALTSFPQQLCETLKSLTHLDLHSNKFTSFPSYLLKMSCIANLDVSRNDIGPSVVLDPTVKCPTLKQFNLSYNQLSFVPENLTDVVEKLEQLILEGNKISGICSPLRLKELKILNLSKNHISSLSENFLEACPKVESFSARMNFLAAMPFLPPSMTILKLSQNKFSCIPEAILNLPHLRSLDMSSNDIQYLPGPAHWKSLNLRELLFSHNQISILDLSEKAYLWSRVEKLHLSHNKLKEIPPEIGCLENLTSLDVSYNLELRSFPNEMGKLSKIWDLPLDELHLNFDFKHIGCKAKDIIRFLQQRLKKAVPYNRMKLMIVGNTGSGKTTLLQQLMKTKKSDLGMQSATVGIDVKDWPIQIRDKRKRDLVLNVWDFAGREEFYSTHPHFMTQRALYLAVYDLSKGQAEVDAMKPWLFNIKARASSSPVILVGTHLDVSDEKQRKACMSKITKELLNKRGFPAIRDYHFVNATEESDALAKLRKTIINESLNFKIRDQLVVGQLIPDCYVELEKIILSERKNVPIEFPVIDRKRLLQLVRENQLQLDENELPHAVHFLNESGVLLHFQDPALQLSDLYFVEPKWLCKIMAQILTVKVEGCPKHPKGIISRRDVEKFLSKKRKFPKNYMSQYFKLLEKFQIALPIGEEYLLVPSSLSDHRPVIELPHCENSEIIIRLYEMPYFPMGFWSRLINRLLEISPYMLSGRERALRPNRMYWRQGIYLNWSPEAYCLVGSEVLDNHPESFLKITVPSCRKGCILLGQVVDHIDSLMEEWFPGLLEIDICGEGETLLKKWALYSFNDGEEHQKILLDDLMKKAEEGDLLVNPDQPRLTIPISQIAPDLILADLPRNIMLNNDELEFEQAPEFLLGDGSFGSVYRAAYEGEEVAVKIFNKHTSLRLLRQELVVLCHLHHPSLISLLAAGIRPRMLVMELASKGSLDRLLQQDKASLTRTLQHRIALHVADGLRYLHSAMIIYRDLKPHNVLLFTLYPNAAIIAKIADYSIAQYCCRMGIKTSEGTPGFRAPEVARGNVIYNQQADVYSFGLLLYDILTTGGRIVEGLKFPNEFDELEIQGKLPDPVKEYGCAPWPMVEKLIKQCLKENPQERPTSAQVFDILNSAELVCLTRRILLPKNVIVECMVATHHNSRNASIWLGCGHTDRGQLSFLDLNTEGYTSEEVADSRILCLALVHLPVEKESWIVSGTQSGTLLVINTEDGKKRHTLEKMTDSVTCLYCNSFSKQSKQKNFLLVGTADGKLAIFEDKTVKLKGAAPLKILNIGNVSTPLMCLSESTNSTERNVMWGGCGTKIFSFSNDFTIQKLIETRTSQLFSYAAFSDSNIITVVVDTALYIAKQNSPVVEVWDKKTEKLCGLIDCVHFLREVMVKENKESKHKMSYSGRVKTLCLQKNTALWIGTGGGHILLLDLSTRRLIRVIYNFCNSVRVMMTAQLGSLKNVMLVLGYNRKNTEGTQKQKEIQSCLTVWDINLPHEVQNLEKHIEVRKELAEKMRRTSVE

This test addresses Leucine-rich repeat serine/threonine-protein kinase 2 (Homo sapiens, UniProt Q5S007, G2019S). Kind of test: Inhibition of GST-tagged truncated human LRRK2 G2019S mutant using fluorescein labeled LRRKtide peptide as substrate preincubated for 15 mins followed by substrate addition measured after 90 mins in presence of ATP at Km concentration by TR-FRET Lanthascreen assay.
Broadly, the IC50 is the concentration needed to halve the response being measured. For `OC1(c2cncs2)CCN(c2cc3c(cnn3-c3cnn(C4CC4)c3)cc2Cl)CC1`, the IC50 was determined as 97.5 nM.

Take `[2H]C([2H])([2H])OCC12CC(n3cc(-n4ncc5cc(Cl)c(N6CCN([C@]7(C)COC[C@@H]7O)CC6)cc54)cn3)(C1)C2`: the IC50 came to 157 nM.

For `CO[C@H]1COC[C@H]1N1CCN(c2cc3c(cnn3-c3cnn(C45CC(C4)C5)c3)cc2Cl)CC1`, the IC50 was 104 nM.

With `COCC12CC(n3cc(-n4ncc5cc(Cl)c(N6CCN([C@]7(C)COC[C@@H]7O)CC6)cc54)cn3)(C1)C2`, the IC50 is below 80.4 nM.

As to `C[C@@]1(N2CCN(c3cc4c(cnn4-c4cnn(C56CC(C5)C6)c4)cc3Cl)CC2)CC[C@H]1O`, the IC50 was 154 nM.

Consider `Cc1cc2cnn(-c3cnn(C45CC(C4)C5)c3)c2cc1N1CCN([C@@H]2COC[C@@H]2O)CC1`, for which the IC50 worked out at 259 nM.
